# Tests used:
# kinases (468) [1] = target: kinases (468) (Homo sapiens, UniProt Q16512); details: PKN1; 1000 nM
# kinases (468) [2] = target: kinases (468) (Homo sapiens, UniProt P51956); details: NEK3; 1000 nM
# kinases (468) [3] = target: kinases (468) (Homo sapiens, UniProt O15146); details: MUSK; 1000 nM
# kinases (468) [4] = target: kinases (468) (Homo sapiens, UniProt O75460); details: ERN1; 1000 nM
# kinases (468) [5] = target: kinases (468) (Homo sapiens, UniProt Q9H093); details: kinase SNARK (Entrez NUAK2); compound concentration 1000 nM
# kinases (468) [6] = target: kinases (468) (Homo sapiens, UniProt P19784); details: CSNK2A2; 1000 nM
# kinases (468) [7] = target: kinases (468) (Homo sapiens, UniProt P04629); details: kinase TRKA (Entrez NTRK1); compound concentration 1000 nM
# Chain of kinases (468) (Homo sapiens, UniProt P04629) (P04629 33-796): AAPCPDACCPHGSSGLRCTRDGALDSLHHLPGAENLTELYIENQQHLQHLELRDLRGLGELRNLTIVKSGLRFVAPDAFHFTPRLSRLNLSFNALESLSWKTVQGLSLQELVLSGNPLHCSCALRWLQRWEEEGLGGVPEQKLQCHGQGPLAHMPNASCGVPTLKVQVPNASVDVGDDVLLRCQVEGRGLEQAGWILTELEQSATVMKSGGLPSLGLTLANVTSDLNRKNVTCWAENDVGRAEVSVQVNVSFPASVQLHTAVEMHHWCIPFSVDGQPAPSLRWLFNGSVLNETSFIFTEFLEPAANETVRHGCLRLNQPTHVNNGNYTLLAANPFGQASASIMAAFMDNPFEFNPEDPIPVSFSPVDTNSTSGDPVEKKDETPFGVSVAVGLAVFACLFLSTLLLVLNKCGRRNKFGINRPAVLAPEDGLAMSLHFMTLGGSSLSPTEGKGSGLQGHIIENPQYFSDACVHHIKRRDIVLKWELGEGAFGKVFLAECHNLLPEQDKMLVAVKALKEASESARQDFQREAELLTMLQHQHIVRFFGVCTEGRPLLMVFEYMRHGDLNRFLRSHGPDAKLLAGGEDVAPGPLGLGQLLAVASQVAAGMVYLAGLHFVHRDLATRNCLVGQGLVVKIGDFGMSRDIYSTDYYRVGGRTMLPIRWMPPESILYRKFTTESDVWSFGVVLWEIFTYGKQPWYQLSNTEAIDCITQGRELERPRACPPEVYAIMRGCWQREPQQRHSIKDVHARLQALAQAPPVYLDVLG
# kinases (468) [8] = target: kinases (468) (Plasmodium falciparum, UniProt P62344); details: PFCDPK1(P.falciparum) (CDPK1); 1000 nM
# kinases (468) [9] = target: kinases (468) (Homo sapiens, UniProt O76039); details: CDKL5; 1000 nM
# kinases (468) [10] = target: kinases (468) (Homo sapiens, UniProt Q9UM73, L1196M); details: ALK(L1196M); 1000 nM
# kinases (468) [11] = target: kinases (468) (Homo sapiens, UniProt Q86YV6); details: MYLK4; 1000 nM
# Chain of kinases (468) (Homo sapiens, UniProt Q86YV6) (Q86YV6 whole entry): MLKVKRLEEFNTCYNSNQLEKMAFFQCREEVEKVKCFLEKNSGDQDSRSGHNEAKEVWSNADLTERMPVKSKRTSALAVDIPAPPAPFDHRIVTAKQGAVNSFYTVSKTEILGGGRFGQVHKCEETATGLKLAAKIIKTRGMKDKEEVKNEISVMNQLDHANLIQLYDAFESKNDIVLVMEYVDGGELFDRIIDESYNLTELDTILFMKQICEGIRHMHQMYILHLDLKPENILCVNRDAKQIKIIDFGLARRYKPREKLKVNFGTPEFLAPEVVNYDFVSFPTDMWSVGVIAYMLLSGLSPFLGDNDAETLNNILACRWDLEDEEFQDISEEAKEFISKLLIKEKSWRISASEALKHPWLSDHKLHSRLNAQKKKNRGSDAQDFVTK
# kinases (468) [12] = target: kinases (468) (Homo sapiens, UniProt Q00526); details: CDK3; 1000 nM
# kinases (468) [13] = target: kinases (468) (Homo sapiens, UniProt Q13464); details: kinase ROCK1 (Entrez ROCK1); compound concentration 1000 nM
# kinases (468) [14] = target: kinases (468) (Homo sapiens, UniProt Q12852); details: DLK (MAP3K12); 1000 nM
# kinases (468) [15] = target: kinases (468) (Homo sapiens, UniProt Q09013); details: DMPK; 1000 nM
# kinases (468) [16] = target: kinases (468) (Homo sapiens, UniProt Q5VT25); details: MRCKA (CDC42BPA); 1000 nM
# Chain of kinases (468) (Homo sapiens, UniProt Q5VT25) (Q5VT25 whole entry): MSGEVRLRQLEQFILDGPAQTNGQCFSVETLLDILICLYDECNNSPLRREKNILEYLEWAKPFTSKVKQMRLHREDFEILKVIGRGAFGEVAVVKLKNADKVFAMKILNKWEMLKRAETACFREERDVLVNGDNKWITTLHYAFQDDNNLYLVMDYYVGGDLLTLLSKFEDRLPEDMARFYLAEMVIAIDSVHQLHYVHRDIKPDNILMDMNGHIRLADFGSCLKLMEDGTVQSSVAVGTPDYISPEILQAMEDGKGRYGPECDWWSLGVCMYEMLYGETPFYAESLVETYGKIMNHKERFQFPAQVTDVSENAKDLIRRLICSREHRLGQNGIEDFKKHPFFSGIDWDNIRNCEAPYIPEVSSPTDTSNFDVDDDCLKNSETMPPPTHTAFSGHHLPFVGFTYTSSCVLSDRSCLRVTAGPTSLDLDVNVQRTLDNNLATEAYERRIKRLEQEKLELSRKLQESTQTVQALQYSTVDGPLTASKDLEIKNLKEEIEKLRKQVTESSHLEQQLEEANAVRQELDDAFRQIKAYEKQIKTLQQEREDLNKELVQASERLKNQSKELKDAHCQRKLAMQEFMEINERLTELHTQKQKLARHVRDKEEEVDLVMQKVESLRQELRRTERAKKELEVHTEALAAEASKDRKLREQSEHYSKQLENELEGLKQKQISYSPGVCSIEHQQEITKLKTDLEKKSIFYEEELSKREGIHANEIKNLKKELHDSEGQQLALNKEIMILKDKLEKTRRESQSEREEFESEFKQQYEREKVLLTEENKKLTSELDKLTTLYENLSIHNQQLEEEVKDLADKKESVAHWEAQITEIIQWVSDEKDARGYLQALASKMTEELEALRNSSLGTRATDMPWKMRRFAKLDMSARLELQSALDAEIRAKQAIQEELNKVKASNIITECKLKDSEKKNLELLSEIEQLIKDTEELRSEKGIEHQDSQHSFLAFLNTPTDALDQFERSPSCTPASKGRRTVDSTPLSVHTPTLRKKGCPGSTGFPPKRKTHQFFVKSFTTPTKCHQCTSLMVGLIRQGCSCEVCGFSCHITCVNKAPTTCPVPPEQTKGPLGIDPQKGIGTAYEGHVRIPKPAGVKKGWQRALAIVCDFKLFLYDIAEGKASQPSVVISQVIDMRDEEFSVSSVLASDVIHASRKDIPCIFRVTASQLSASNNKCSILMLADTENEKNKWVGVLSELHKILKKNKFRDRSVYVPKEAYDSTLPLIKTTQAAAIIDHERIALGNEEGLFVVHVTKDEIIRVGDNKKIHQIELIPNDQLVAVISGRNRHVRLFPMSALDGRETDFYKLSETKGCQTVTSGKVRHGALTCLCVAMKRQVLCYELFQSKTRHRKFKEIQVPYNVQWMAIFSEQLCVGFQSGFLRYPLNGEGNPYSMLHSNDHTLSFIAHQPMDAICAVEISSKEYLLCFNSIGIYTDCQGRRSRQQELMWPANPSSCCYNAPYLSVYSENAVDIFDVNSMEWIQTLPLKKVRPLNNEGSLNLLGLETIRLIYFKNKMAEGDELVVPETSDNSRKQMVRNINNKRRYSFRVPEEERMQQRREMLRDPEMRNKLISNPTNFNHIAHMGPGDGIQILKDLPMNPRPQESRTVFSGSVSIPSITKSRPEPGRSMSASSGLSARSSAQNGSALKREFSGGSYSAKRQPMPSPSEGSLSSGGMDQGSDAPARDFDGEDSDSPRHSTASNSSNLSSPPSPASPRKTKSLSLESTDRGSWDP
# kinases (468) [17] = target: kinases (468) (Homo sapiens, UniProt Q04771); details: ACVR1; 1000 nM
# kinases (468) [18] = target: kinases (468) (Homo sapiens, UniProt Q8IVH8); details: MAP4K3; 1000 nM
# kinases (468) [19] = target: kinases (468) (Homo sapiens, UniProt P49137); details: MAPKAPK2; 1000 nM
# kinases (468) [20] = target: kinases (468) (Homo sapiens, UniProt O15075); details: DCAMKL1 (DCLK1); 1000 nM
# kinases (468) [21] = target: kinases (468) (Homo sapiens, UniProt Q07912); details: kinase TNK2 (Entrez TNK2); compound concentration 1000 nM
# kinases (468) [22] = target: kinases (468) (Homo sapiens, UniProt P00533, DEL752-759); details: EGFR(S752-I759del); 1000 nM
# kinases (468) [23] = target: kinases (468) (Homo sapiens, UniProt Q8TDX7); details: NEK7; 1000 nM
# kinases (468) [24] = target: kinases (468) (Homo sapiens, UniProt Q8IVW4); details: CDKL3; 1000 nM
# kinases (468) [25] = target: kinases (468) (Homo sapiens, UniProt Q9NRM7); details: LATS2; 1000 nM
# kinases (468) [26] = target: kinases (468) (Homo sapiens, UniProt Q9NSY1); details: BIKE (BMP2K); 1000 nM
# kinases (468) [27] = target: kinases (468) (Homo sapiens, UniProt P42685); details: FRK; 1000 nM
# kinases (468) [28] = target: kinases (468) (Homo sapiens, UniProt P08581, M1250T); details: MET(M1250T); 1000 nM
# kinases (468) [29] = target: kinases (468) (Homo sapiens, UniProt P07947); details: kinase YES (Entrez YES1); compound concentration 1000 nM
# kinases (468) [30] = target: kinases (468) (Homo sapiens, UniProt P07949, V804M); details: kinase RET(V804M) (Entrez RET); compound concentration 1000 nM
# kinases (468) [31] = target: kinases (468) (Homo sapiens, UniProt Q05397); details: FAK (PTK2); 1000 nM
# Chain of kinases (468) (Homo sapiens, UniProt Q05397) (Q05397 whole entry): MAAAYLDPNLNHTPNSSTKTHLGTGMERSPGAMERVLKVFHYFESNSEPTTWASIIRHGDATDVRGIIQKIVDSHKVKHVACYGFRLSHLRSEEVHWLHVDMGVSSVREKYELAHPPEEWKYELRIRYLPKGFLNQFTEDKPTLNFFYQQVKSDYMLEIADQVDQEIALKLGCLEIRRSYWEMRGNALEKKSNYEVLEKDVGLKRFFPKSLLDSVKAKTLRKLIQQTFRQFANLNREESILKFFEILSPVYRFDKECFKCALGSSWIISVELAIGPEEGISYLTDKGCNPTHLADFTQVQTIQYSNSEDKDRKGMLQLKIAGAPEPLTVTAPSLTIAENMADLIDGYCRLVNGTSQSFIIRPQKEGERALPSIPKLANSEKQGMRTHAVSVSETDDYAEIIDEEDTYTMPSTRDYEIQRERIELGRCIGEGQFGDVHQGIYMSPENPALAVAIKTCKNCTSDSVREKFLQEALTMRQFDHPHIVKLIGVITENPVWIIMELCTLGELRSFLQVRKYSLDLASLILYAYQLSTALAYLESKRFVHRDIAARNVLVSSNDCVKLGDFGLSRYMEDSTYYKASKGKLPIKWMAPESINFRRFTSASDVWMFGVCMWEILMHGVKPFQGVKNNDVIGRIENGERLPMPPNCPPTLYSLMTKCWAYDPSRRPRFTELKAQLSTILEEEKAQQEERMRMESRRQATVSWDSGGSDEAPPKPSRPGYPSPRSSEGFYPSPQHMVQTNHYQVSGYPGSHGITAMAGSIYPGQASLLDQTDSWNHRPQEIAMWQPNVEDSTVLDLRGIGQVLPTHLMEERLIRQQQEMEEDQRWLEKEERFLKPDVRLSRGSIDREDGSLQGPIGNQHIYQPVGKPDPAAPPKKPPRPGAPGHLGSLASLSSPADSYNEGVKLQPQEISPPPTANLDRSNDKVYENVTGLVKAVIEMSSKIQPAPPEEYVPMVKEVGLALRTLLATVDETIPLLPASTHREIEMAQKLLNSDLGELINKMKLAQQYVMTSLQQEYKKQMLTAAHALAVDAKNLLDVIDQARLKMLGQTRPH
# kinases (468) [32] = target: kinases (468) (Homo sapiens, UniProt Q13237); details: PRKG2; 1000 nM
# kinases (468) [33] = target: kinases (468) (Homo sapiens, UniProt P32298); details: GRK4; 1000 nM
# kinases (468) [34] = target: kinases (468) (Homo sapiens, UniProt Q92630); details: DYRK2; 1000 nM
# kinases (468) [35] = target: kinases (468) (Homo sapiens, UniProt P80192); details: MLK1 (MAP3K9); 1000 nM
# Chain of kinases (468) (Homo sapiens, UniProt P80192) (P80192 whole entry): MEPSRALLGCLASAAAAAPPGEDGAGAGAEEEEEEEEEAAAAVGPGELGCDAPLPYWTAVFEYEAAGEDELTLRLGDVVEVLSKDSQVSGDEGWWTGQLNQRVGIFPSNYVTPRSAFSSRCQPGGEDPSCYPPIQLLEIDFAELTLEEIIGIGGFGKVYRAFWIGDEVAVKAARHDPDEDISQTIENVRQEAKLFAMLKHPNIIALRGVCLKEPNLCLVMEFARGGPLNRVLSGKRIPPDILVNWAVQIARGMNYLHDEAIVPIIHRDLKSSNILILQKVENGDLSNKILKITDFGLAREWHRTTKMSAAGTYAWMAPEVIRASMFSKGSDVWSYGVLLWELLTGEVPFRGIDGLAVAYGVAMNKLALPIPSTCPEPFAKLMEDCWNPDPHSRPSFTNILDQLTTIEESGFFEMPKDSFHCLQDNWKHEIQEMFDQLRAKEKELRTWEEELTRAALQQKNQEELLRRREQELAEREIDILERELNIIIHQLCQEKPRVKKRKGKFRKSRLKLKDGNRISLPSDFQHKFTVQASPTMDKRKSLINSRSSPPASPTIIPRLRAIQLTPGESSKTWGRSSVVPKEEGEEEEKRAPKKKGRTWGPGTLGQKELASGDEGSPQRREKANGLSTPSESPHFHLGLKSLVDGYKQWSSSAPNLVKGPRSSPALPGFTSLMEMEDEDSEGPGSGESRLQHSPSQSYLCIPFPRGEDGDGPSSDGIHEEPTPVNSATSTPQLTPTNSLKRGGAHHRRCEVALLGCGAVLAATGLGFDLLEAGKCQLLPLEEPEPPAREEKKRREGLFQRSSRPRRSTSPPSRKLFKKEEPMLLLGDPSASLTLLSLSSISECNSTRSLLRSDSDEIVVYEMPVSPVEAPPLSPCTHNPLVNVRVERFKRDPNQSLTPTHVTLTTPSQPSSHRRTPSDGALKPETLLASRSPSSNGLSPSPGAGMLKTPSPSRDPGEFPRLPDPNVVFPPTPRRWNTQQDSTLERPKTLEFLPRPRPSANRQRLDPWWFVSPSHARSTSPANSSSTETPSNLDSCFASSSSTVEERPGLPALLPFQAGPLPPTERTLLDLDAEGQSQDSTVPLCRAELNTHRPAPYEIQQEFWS
compound,measurement,setting,value
C[C@H]1C[C@@H](O)CN(c2ncc(Cl)c(Nc3ccc4c(c3)c3c(c(=O)n4C)OCC(F)(F)[C@H](C4CC4)N3)n2)C1 [CCT373566_9A],Percent Control,kinases (468) [1],100%
same,Percent Control,kinases (468) [2],98%
same,Percent Control,kinases (468) [3],100%
same,Percent Control,kinases (468) [4],92%
same,Percent Control,kinases (468) [5],100%
same,Percent Control,kinases (468) [6],100%
same,Percent Control,kinases (468) [7],100%
same,Percent Control,kinases (468) [8],69%
same,Percent Control,kinases (468) [9],96%
same,Percent Control,kinases (468) [10],97%
same,Percent Control,kinases (468) [11],100%
same,Percent Control,kinases (468) [12],100%
same,Percent Control,kinases (468) [13],93%
same,Percent Control,kinases (468) [14],96%
same,Percent Control,kinases (468) [15],98%
same,Percent Control,kinases (468) [16],99%
same,Percent Control,kinases (468) [17],85%
same,Percent Control,kinases (468) [18],100%
same,Percent Control,kinases (468) [19],97%
same,Percent Control,kinases (468) [20],100%
same,Percent Control,kinases (468) [21],93%
same,Percent Control,kinases (468) [22],86%
same,Percent Control,kinases (468) [23],96%
same,Percent Control,kinases (468) [24],100%
same,Percent Control,kinases (468) [25],96%
same,Percent Control,kinases (468) [26],100%
same,Percent Control,kinases (468) [27],100%
same,Percent Control,kinases (468) [28],100%
same,Percent Control,kinases (468) [29],99%
same,Percent Control,kinases (468) [30],97%
same,Percent Control,kinases (468) [31],96%
same,Percent Control,kinases (468) [32],100%
same,Percent Control,kinases (468) [33],91%
same,Percent Control,kinases (468) [34],91%
same,Percent Control,kinases (468) [35],100%

# Reference: article PMC9234961 (Journal of Medicinal Chemistry, 2022)
